The values below come from patent US9198432B2, “1,2,4-triazolyl-substituted ketoenols” (BAYER INTELLECTUAL PROPERTY GMBH, priority 2011, dated 2015).

What all share (type): in vivo
Assay [1] concerns Lucilia cuprina larvae. Briefly: Lucilia cuprina (48 h) test. Conditions: 100 ppm, after 48 hours, treated horse meat. As to the method: Lucilia Cuprina (48 h) Solvent: dimethyl sulfoxide To produce a suitable preparation of active compound, 10 mg of active compound are mixed with 0.5 ml of dimethyl sulfoxide, and the concentrate is diluted with water to the desired concentration. Vessels containing horse meat treated with the active compound preparation of the desired concentration are populated with about 20 Lucilia cuprina larvae. After 48 hours, the kill in % is determined 100% means that all larvae have been killed; 0% means that no larvae have been killed.

In assay [2] the test system is greenhouse red spider mite (Tetranychus urticae). Briefly: Tetranychus spray test, OP-resistant (TETRUR). Conditions: after 6 days, bean leaf discs. The method, then: Tetranychus Spray Test, OP-resistant (TETRUR)
(§1) Solvents: 78.0 parts by weight of acetone • • 1.5 parts by weight of dimethylformamide
Emulsifer: 0.5 part by weight of alkylaryl polyglycol ether
(§2) To produce a suitable preparation of active compound, 1 part by weight of active compound is mixed with the stated amounts of solvent and emulsifier, and the concentrate is diluted with emulsifier-containing water to the desired concentration.
Discs of bean leaves (Phaseolus vulgaris) which are infested by all stages of the greenhouse red spider mite (Tetranychus urticae) are sprayed with an active compound preparation of the desired concentration.
After 6 days, the effect in % is determined 100% here means that all of the spider mites have been killed; 0% means that none of the spider mites have been killed.

The subject of assay [3] is green peach aphid (Myzus persicae). Briefly: Myzus persicae spray test (MYZUPE). Particulars: 500 g/ha, after 6 days, Chinese cabbage disks. The method, then: Myzus persicae Spray Test (MYZUPE) Solvents: 78 parts by weight of acetone • • 1.5 parts by weight of dimethylformamide Emulsifier: 0.5 part by weight of alkylaryl polyglycol ether To produce a suitable preparation of active compound, 1 part by weight of active compound is mixed with the stated amounts of solvent and emulsifier, and the concentrate is diluted with emulsifier-containing water to the desired concentration. Disks of Chinese cabbage (Brassica pekinensis) infested by all stages of the green peach aphid (Myzus persicae) are sprayed with an active compound formulation of the desired concentration. After 6 days, the effect in % is determined 100% here means that all of the aphids have been killed; 0% means that none of the aphids have been killed.

For assay [4], the system named is larvae of the mustard beetle (Phaedon cochleariae). The assay can be described thus: Phaedon cochleariae spray test (PHAECO). Particulars: 500 g/ha, after 7 days, Chinese cabbage leaf disks. The method, then: Phaedon Cochleariae Spray Test (PHAECO)
as §1
Emulsifier: 0.5 part by weight of alkylaryl polyglycol ether
as §2
After 7 days, the effect in % is determined 100% means that all beetle larvae have been killed; 0% means that none of the beetle larvae have been killed.

On to `Cn1nc(-c2ccc(Cl)cc2)nc1C1=C(O)C(C)(C)NC1=O` [Example I-1-a1-3], for which, in assay [1], the “efficacy (kill in %)” value is 90%. The “efficacy (effect in %, spider mites killed)” value in assay [2] (500 g/ha) is listed as 100%.

In the case of `CCn1nc(-c2ccc(Cl)cc2)nc1C1=C(O)C(C)(C)NC1=O` [Example I-1-a1-4], in assay [2] (500 g/ha), the “efficacy (effect in %, spider mites killed)” value is 80%. The “efficacy (effect in %, aphids killed)” value in assay [3] came out at 80%.

On to `CC(C)n1nc(-c2ccc(Cl)cc2)nc1C1=C(O)C(C)(C)NC1=O` [Example I-1-a1-9], for which the “efficacy (effect in %, spider mites killed)” value in assay [2] (100 g/ha) was found to be 90%.

Take `COC1CCC2(CC1)NC(=O)C(c1nc(-c3ccc(F)cc3)nn1C)=C2O` (centres unmarked) [Example I-1-a2-1]: the “efficacy (effect in %, spider mites killed)” value in assay [2] (500 g/ha) is on record as 100%. Besides, the “efficacy (effect in %, aphids killed)” value in assay [3] worked out at 100%.

Consider `COC1CCC2(CC1)NC(=O)C(c1nc(-c3ccc(Cl)cc3)nn1C)=C2O` (centres unmarked) [Example I-1-a2-3], for which, in assay [2] (500 g/ha), the “efficacy (effect in %, spider mites killed)” value was determined as 100%. In assay [3], the “efficacy (effect in %, aphids killed)” value was 100%.

In the case of `COC1CCC2(CC1)NC(=O)C(c1nc(-c3ccccc3)nn1C)=C2O` (centres unmarked) [Example I-1-a2-5], in assay [3], the “efficacy (effect in %, aphids killed)” value is listed as 100%.

Regarding `Cn1nc(-c2ccc(F)cc2)nc1C1=C(O)C2(CCOCC2)NC1=O` [Example I-1-a3-1], in assay [2] (500 g/ha), the “efficacy (effect in %, spider mites killed)” value turned out to be 100%.

`Cn1nc(-c2ccccc2)nc1C1=C(O)C2(CCOCC2)NC1=O` [Example I-1-a3-5]: the “efficacy (effect in %, aphids killed)” value in assay [3] was determined as 100%.

For the compound `CCn1nc(-c2ccc(Cl)cc2)nc1C1=C(O)C2CCCN2C1=O` (centres unmarked) [Example I-1-a4-4], the “efficacy (effect in %, spider mites killed)” value in assay [2] (500 g/ha) stood at 100%.

On to `CCCOC1CCC2(CC1)NC(=O)C(c1nc(-c3ccc(Cl)cc3)nn1C)=C2O` (centres unmarked) [Example I-1-a6-3], for which the “efficacy (effect in %, spider mites killed)” value in assay [2] (500 g/ha) was 90%. The “efficacy (effect in %, aphids killed)” value in assay [3] came out at 90%. In assay [4], the “efficacy (effect in %, beetle larvae killed)” value came out at 100%.

On to `CC1CCC2(CC1)NC(=O)C(c1nc(-c3ccc(Cl)cc3)nn1C)=C2O` (centres unmarked) [Example I-1-a7-3], for which the “efficacy (effect in %, spider mites killed)” value in assay [2] (500 g/ha) is 90%. In addition, the “efficacy (effect in %, aphids killed)” value in assay [3] turned out to be 90%.

As for `Cn1nc(-c2ccc(Cl)cc2)nc1C1=C(O)C2(CCC(C(F)(F)F)CC2)NC1=O` (centres unmarked) [Example I-1-a8-3], in assay [2] (500 g/ha), the “efficacy (effect in %, spider mites killed)” value stood at 100%.

For `CCON1CCC2(CC1)NC(=O)C(c1nc(-c3ccc(Cl)cc3)nn1C)=C2O` [Example I-1-a9-3], the “efficacy (effect in %, spider mites killed)” value in assay [2] (100 g/ha) stood at 90%. For the same compound, the “efficacy (effect in %, aphids killed)” value in assay [3] is recorded as 90%.

As to `CON1CCC2(CC1)NC(=O)C(c1nc(-c3ccc(Cl)cc3)nn1C)=C2O` [Example I-1-a10-3], the “efficacy (effect in %, spider mites killed)” value in assay [2] (100 g/ha) was 90%. Besides, the “efficacy (effect in %, aphids killed)” value in assay [3] was 90%.

Take `C=CCOC1CCC2(CC1)NC(=O)C(c1nc(-c3ccc(Cl)cc3)nn1C)=C2O` (centres unmarked) [Example I-1-a11-3]: the “efficacy (effect in %, spider mites killed)” value in assay [2] (100 g/ha) is 90%. Moreover, the “efficacy (effect in %, aphids killed)” value in assay [3] turned out to be 90%.

Turning to `CC1COC2(CCC3(CC2)NC(=O)C(c2nc(-c4ccc(Cl)cc4)nn2C)=C3O)OC1` (centres unmarked) [Example I-1-a13-3], the “efficacy (effect in %, aphids killed)” value in assay [3] stood at 90%.

`Cn1nc(-c2ccc(Cl)cc2)nc1-c1c(O)n2n(c1=O)CCOCC2` [Example I-8-a3]: the “efficacy (effect in %, spider mites killed)” value in assay [2] (100 g/ha) turned out to be 90%. Besides, the “efficacy (effect in %, aphids killed)” value in assay [3] was found to be 90%.

As for `CCn1nc(-c2ccc(F)cc2)nc1-c1c(O)n2n(c1=O)CCOCC2` [Example I-8-a5], in assay [2] (100 g/ha), the “efficacy (effect in %, spider mites killed)” value is given as 90%.
